According to patent US6878725B2, “Serine protease inhibitors” (Eli Lilly and Company, priority 2001, dated 2005):

Row | melting point [°C] | SMILES
1 | 205 to 215 | Cl.O=C(N[C@@H](C(=O)N1CCC(Nc2ccncc2)CC1)c1ccccc1)c1ccc2cc[nH]c2c1
2 | 128 to 134 | O=C(N[C@@H](C(=O)N1CCC(Nc2ccccn2)CC1)c1ccccc1)c1ccc2cc[nH]c2c1 [Example 39, 1-(Indole-6-carbonyl-D-phenylglycinyl)-4-(pyridin-2-ylamino)piperidine]
